Experiment [1] has as its system SMMC-7721 (human liver cancer cells). Kind of experiment: Inhibition of proliferation of tumor cell lines (MTT), SMMC-7721. It is filed as cell-based. The note with it: Homo sapiens, SMMC-7721, 72 h, read-out: IC50 value of compound for inhibition of proliferation of tumor cell lines, SMMC-7721. The method, boiled down: (§1)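 Log-phase cells, RPMI 1640 + 10% calf serum, seeded ~1×10^5/mL, 24 h attachment. Compound dilutions, quadruplicate wells, 72 h, 37° C/5% CO2. MTT 4 h → DMSO → A570. IC50 via log-dose/IR regression.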

In experiment [2] the test system is BGC-823 (human gastric cancer cells). The experiment can be described thus: Inhibition of proliferation of tumor cell lines (MTT), BGC-823. It is filed as cell-based. The following applies: Homo sapiens, BGC-823, 72 h, read-out: IC50 value of compound for inhibition of proliferation of tumor cell lines, BGC-823. Summed up: as §1
Experiment [3] concerns MCF-7 (human breast cancer cells). Kind of experiment: Inhibition of proliferation of tumor cell lines (MTT), MCF-7. It is filed as cell-based. The following applies: Homo sapiens, MCF7, MCF-7, 72 h, read-out: IC50 value of compound for inhibition of proliferation of tumor cell lines, MCF-7. The method, boiled down: as §1
For experiment [4], the system named is A549 (human lung cancer cells). Kind of experiment: Inhibition of proliferation of tumor cell lines (MTT), A549. It is filed as cell-based. The following applies: Homo sapiens, A549, 72 h, read-out: IC50 value of compound for inhibition of proliferation of tumor cell lines, A549. Summed up:
as §1

The test system of experiment [5] is release of IL-8 by human keratinocytes (HaCaT). The experiment can be described thus: Release of IL-8 by human keratinocytes (HaCaT), IL-8 Elisa. It is filed as cell-based. The note with it: Homo sapiens, HaCaT; 0.1 μg/mL; 24 h; (Csample−Ccontrol)/Ccontrol×100%; read-out: Efficiency of compound in stimulating the release of IL-8 by HaCaT cells. The method, boiled down:
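HaCaT keratinocytes in MEM + 10% FBS, seeded 1×10^4 cells/well for 18-24 h, then switched to 1% FBS medium for 3-6 h. Exposed to a range of compound concentrations for 24 h at 37 °C, 5% CO2. Supernatant IL-8 measured by ELISA; efficiency (%) = (Csample − Ccontrol)/Ccontrol × 100%.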

For experiment [6], the system named is HeLa (human cervical cancer cells). The experiment can be described thus: Inhibition of proliferation of tumor cell lines (MTT), HeLa. The note with it: Homo sapiens, 72 h, read-out: IC50 value of compound for inhibition of proliferation of tumor cell lines, HeLA. It is filed as cell-based. Summed up: as §1
Experiment [7] deals with K562 (human leukemia cells). Kind of experiment: Inhibition of proliferation of tumor cell lines (MTT), K562. It is filed as cell-based. The following applies: Homo sapiens, K562, 72 h, read-out: IC50 value of compound for inhibition of proliferation of tumor cell lines, K562. Summed up: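 Cells in RPMI 1640 with 10% calf serum; adherent lines seeded at about 1×10^5/mL and attached 24 h, K562 at 2×10^5/mL. Compounds added in quadruplicate, 72 h at 37 °C, 5% CO2; MTT 4 h, DMSO-dissolved formazan read at 570 nm. IC50 from log-concentration versus inhibition-rate regression.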

The subject of experiment [8] is mouse B16-F10 melanoma cells. The experiment can be described thus: Inhibition of proliferation of tumor cell lines (MTT), B16-F10. It is filed as cell-based. The note with it: Mus musculus, B16-F10, 72 h, read-out: IC50 value of compound for inhibition of proliferation of tumor cell lines, B16-F10. The procedure:
In this example, the inhibitory activity of compounds of the present invention against proliferation of seven human tumor cell lines and mouse B16-F10 melanoma cells was tested in vitro, and the IC50 value (50% inhibitory concentration) of compounds against each tumor cell line was calculated.
IC50 values of the compounds for A549, BGC-823, LOVO, MCF-7, SMMC-7721, HeLa, and B16-F10 cells were tested. The above cells were routinely cultured in 1640 nutrient solution containing 10% calf serum, with passage for 1 time every 2 days, and the cells in logarithmic growth phase were taken for experiments. After the A549, BGC-823, LOVO, MCF-7, SMMC-7721, HeLa and B16-F10 cells in logarithmic growth phase were subjected to 0.25% trypsin digestion, they were blown into a single cell suspension, and then the cell concentration was adjusted to about 1×10^5·mL^−1 using RPMI 1640 solution containing 10% calf serum. The cells were seeded in a 96-well culture plate at 100 μL per well, and cultured for 24 hours until the cells were attached. K562 cells were taken and centrifuged and diluted into 2×10^5·mL^−1 single cell suspension with RPMI 1640 solution containing 10% calf serum, and inoculated into a 96-well culture plate at 100 μL per well.
100 μL of sample solution with different concentrations to be tested were added to the above 96-well plate, each concentration was added to 4 wells in parallel, and the cell control group was added with an equal volume of RPMI 1640 medium containing 10% calf serum to make a reaction volume of 200 μL. After incubating in an incubator at 37° C., 5% CO2 for 72 h, 10 μL of 5 mg·mL^−1 MTT solution was added to each well, and incubated at 37° C. for 4 h. The supernatant was carefully aspirated, 180 μL of DMSO was added to each well followed by shaking, and the absorbance (OD) value was measured at 570 nm on the microplate reader. The inhibition rate was calculated, and regression equation was established with the logarithmic value of the sample concentration and the inhibition rate (IR) to find the IC50 value of the compound against the cells to be tested. IR (%)=(1−OD value of the experimental group/OD value of the cell control group)×100%

The subject of experiment [9] is LOVO (human colon cancer cells). Kind of experiment: Inhibition of proliferation of tumor cell lines (MTT), LOVO. The note with it: Homo sapiens, 72 h, read-out: IC50 value of compound for inhibition of proliferation of tumor cell lines, LOVO. It is filed as cell-based. The method, boiled down: as §1
In experiment [10] the test system is B16-F0 mouse melanoma. Kind of experiment: Antitumor activity in B16-F0 mouse melanoma model. It is filed as in vivo. The note with it: female C57BL/6J mice, intradermal B16 tumor, skin administration once per day for 3 days, 20 μL/mouse, tumor weight on day 19. On the procedure: This Example investigated the antitumor activity of compounds in B16-F0 mouse melanoma model.
In vitro passage of B16-F0 tumor source was inoculated subcutaneously into female C57BL/6J mice, and passage was carried out after tumor formation. After passage, the subcutaneous tumor tissue of the tumor-bearing mice was taken and ground with 3 times amount of physiological saline to form a tumor cell suspension, and 0.2 mL/mouse of which was inoculated subcutaneously into the axilla of forelimb of mice, which were used as the tumor-source mice. Female C57BL/6J mice were taken and their hair in an area of 4 cm^2 on the neck and back was shaven. After anesthesia with diethyl ether, B16 tumor source was inoculated intradermally at 0.05 mL/mouse. After 3 days of inoculation, the skin was continuously administered for 3 days, once per day, 20 μL/mouse each time, and in the test, a solvent group as a negative control group was included. On the 19th day of the experiment, the experiment was terminated. After the mice were euthanized, the intradermally transplanted tumors were completely separated and excised, and the tumor was weighed to calculate the tumor inhibition rate. Calculation formula of tumor inhibition rate: tumor inhibition rate (%)=(Wmodel group−Wadministration group)/Wmodel group×100%
The tumor growths of the experimental group and the solvent control group were compared to evaluate the antitumor activity of each compound, and the compound with P<0.05 was considered to be effective.

Experiment [11] concerns neutrophilic granulocytes. The experiment can be described thus: Neutrophil oxidative burst (luminol chemiluminescence). It is filed as cell-based. The following applies: Neutrophil, rat neutrophils, (Csample−Ccontrol)/Ccontrol×100%, read-out: Efficiency of compounds in stimulating neutrophil oxidative burst; for activation at 0.1 µg/mL: 0.1 μg/mL. The method, boiled down: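 Rat neutrophils isolated from abdominal aorta blood, resuspended in Hanks at 1×10^5 cells/well with 1 mM luminol stock added. Oxidative burst read by chemiluminescence after sample addition; efficiency (%) = (Csample−Ccontrol)/Ccontrol×100%.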

In brackets after ≈: the same amount, converted by molar mass.

Regarding `C/C=C(/C)C(=O)O[C@H]1C(C)=C[C@]23C(=O)[C@@H](C=C(CO)[C@@H](O)[C@]12O)[C@@H]1C(C)(C)[C@]1(OC(=O)CCCCCCC)C[C@H]3C` [Compound 18, 3-O-angeloyl-13-O-octanoyl-ingenol], the IC50 worked out at 12.4 µg/mL (≈ 21.7 µM) in experiment [1]; 10.1 µg/mL (≈ 17.6 µM) in experiment [2]; 11.7 µg/mL (≈ 20.4 µM) in experiment [3]; 13.6 µg/mL (≈ 23.7 µM) in experiment [4]; 12.2 µg/mL (≈ 21.3 µM) in [6]; 1.41 µg/mL (≈ 2.46 µM) in [7]. Besides, the IC50 was 8.43 µg/mL (≈ 14.7 µM) in experiment [8] and 8.47 µg/mL (≈ 14.8 µM) in experiment [9]. The activation at 0.1 µg/mL in [5] was 29.8%; in [11], 69.1%. The compound further gave a Tumor-inhibition rate in experiment [10] of 59.0%.
Regarding `C/C=C(/C)C(=O)O[C@H]1C(C)=C[C@]23C(=O)[C@@H](C=C(CO)[C@@H](O)[C@]12O)[C@@H]1C(C)(C)[C@]1(OC(=O)CCCCCCCCC)C[C@H]3C` [Compound 19, 3-O-angeloyl-13-O-decanoyl-ingenol], the IC50 in experiment [1] amounted to 13.4 µg/mL (≈ 22.3 µM); in [2] it was 14 µg/mL (≈ 23.3 µM); in experiment [3], 9.3 µg/mL (≈ 15.5 µM); in experiment [4] it was 12.6 µg/mL (≈ 21 µM); in experiment [6] it was 8.58 µg/mL (≈ 14.3 µM); in experiment [7] it was 2.13 µg/mL (≈ 3.55 µM). For the same compound, the values for the IC50 in [8] and in experiment [9] were 9.85 µg/mL (≈ 16.4 µM) and 7.9 µg/mL (≈ 13.1 µM), respectively. Also, the results for the activation at 0.1 µg/mL in [5] and in [11] were 144% and 43.5%, respectively. The compound also returned a Tumor-inhibition rate in experiment [10] of 65.7%.
Regarding `CCCCCCCCCCCC(=O)O[C@@]12C[C@@H](C)[C@]34C=C(C)[C@H](OC(=O)C(C)=C(C)C)[C@@]3(O)[C@H](O)C(CO)=C[C@H](C4=O)[C@@H]1C2(C)C` [Compound 21, 3-O-(2,3-dimethylbutenoyl)-13-O-dodecanoyl-ingenol], the IC50 turned out to be 12.8 µg/mL (≈ 19.9 µM) in experiment [1]; 10.4 µg/mL (≈ 16.2 µM) in [2]; 8.32 µg/mL (≈ 12.9 µM) in experiment [3]; 11.8 µg/mL (≈ 18.4 µM) in [4]; 15.3 µg/mL (≈ 23.8 µM) in experiment [6]; 2.06 µg/mL (≈ 3.2 µM) in experiment [7]. In addition, the IC50 in [8] is 15.1 µg/mL (≈ 23.5 µM); in experiment [9] it was 12.4 µg/mL (≈ 19.3 µM). The activation at 0.1 µg/mL in [5] came out at 127%. The same compound yielded a Tumor-inhibition rate in experiment [10] of 64.1%. In addition, in experiment [11] (3 μg/mL), the activation at 3 µg/mL was determined as 34.8%.
As for `CCCCCCCCCCCC(=O)O[C@@]12C[C@@H](C)[C@]34C=C(C)[C@H](OC(=O)c5c(CC)noc5CC)[C@@]3(O)[C@H](O)C(CO)=C[C@H](C4=O)[C@@H]1C2(C)C` [Compound 22, 3-O-(3,5-diethylisoxazolyl-4-formyl)-13-O-dodecanoyl-ingenol], the IC50 in [1] was found to be 20.1 µg/mL (≈ 28.8 µM); in experiment [2], 11.3 µg/mL (≈ 16.2 µM); in [3], 10.9 µg/mL (≈ 15.6 µM); in experiment [4], 18.3 µg/mL (≈ 26.2 µM); in experiment [6], 9.59 µg/mL (≈ 13.7 µM); in [7] it was 1.14 µg/mL (≈ 1.63 µM). Further, the figures for the IC50 in experiment [8] and in experiment [9] were 2.96 µg/mL (≈ 4.24 µM) and 11 µg/mL (≈ 15.8 µM), respectively. The activation at 0.1 µg/mL in [5] was found to be 144%; in [11], 124%. Also, the Tumor-inhibition rate in experiment [10] is 39.5%.

Source of the values: US11753363B2, “13-oxidized ingenol derivative and use thereof” (Tianjin Pharmaceutical Da Ren Tang Group Corp., Ltd. …, priority 2017, dated 2023).
